For data set [1], the system named is Staphylococcus aureus (ATCC 6538). In words: Alamar Blue reduction biocidal assay, 5 minute exposure. As to conditions: for 50% Inhibitory Concentration (IC50), S. aureus: 50% inhibition of Alamar Blue reduction; for 50% Inhibitory Concentration (IC50), S. aureus / IC50: 5 minutes incubation at room temperature; for IC50: Staphylococcus aureus, ATCC6538, 5 min, read-out: 50% Inhibitory Concentration (IC50), S. aureus, 50% inhibition of Alamar Blue reduction. It is filed as cell-based. As for the experimental part: (§1) In this Example, the antimicrobial efficacy (in terms of IC50 data) of several different formulations against Staphylococcus aureus, Staphylococcus epidermidis, and Escherichia coli was evaluated. The formulations tested comprised a formulation based upon the present invention as well as several other formulations comprised of various organic acids and/or surfactants, as well as surfactants alone. Microorganism Preparation: Lyophilized cultures of Escherichia coli (ATCC 8739), Staphylococcus aureus (ATCC 6538), and Staphylococcus epidermidis (ATCC 12,228) were obtained from the American Type Culture Collection (ATCC) (Rockville, Md.). All three cultures were reconstituted according to ATCC specifications. Aliquots (0.5 mL) of reconstituted 24 hour broth growth were frozen and held at −80° C. until needed. Working cultures were prepared weekly by streaking a loop of frozen culture onto tryptic soy agar plates (TSA) (Becton Dickinson Microbiology Systems, Cockeysville, Md.) and then incubating overnight at 37° C. After incubation, the cultures were held at 4° C. for not more than about 5 days. One day prior to testing, a fresh TSA plate was prepared with a sterile swab to achieve a lawn of growth and incubated at 37° C. for about 24 hours. […] Cell concentrations were determined in triplicate by taking optical density readings of a sample (200 microliters) with a ThermoMax microplate reader spectrophotometer (Molecular Devices) at 650 nm. From a standard curve the appropriate volume of the PBW containing the cells was determined to prepare 1.1×10^9 CFU/mL in the PBW. Exact cell numbers were confirmed by spread plating on TSA and incubating at 37° C. Assay Protocol: To all wells of a Microflour®2 96 well microtiter plate (8 Rows by 12 Columns) (Dynex Technologies, Chantilly, Va.) was added 25 microliters of filtered, sterilized water (Millipore Continental Water Systems, Bedford Mass.). […] After mixing, 25 microliters was transferred from each well in Row A to its corresponding well in Row B to produce a new 50 microliter mixture of sample formulation and water having one half the concentration of sample formulation as that of Row A. The Row B mixtures were aspirated 3 times to thoroughly mix the sample formulation and water combination. These serial dilutions continued down the Rows until reaching Row G (for a total of 6 dilutions from the original plates in Row A). After thorough mixing of Row G well contents, 25 microliters of each well in Row G (a total of 12) was discarded to produce a Row G having 12 columns each containing 25 microliters. […] After serial dilution, bacterial cells were introduced into the wells. […] In columns 4, 5, and 6 of each Row, 25 microliters (about 2.75×10^7 cells) of Staphylococcus epidermidis as prepared above was introduced and mixed. In columns 7, 8, and 9 of each Row, 25 microliters (about 2.75×10^7 cells) of Escherichia coli as prepared above was introduced and mixed. The sample formulations as prepared above were appropriately diluted (if necessary) prior to the introduction of the sample formulations into Row A. The dilutions were made such that, after the sample formulation was introduced into Row A, and after the cells were introduced into Row A (i.e., after reducing the initial concentration of the sample formulation by 50% two times), the initial concentrations were as follows: After the addition of the cells, incubation proceeded (5 minutes) at room temperature. After the incubation period, a 1.6 M phosphate buffer (50 microliters) was added to all wells to neutralize the biocide. Then, 3×Letheen broth (50 microliters) (Difco Laboratories, Detroit, Mich.) and Alamar Blue (25 microliters at room temperature) (AccuMed International, Westlake, Ohio) were added to each well. A positive control was also utilized in the experiment. The positive control consisted of adding sterile Milli-Q water to the wells in place of sample formulation. […]
In general terms: Resazurin is reduced to fluorescent resorufin, in cell work by metabolically active cells.

The subject of data set [2] is Escherichia coli (ATCC 8739). The description is as above. It counts as cell-based. As to conditions: for IC50: Escherichia coli, ATCC8739, ATCC 8739, 5 min, read-out: 50% Inhibitory Concentration (IC50), E. coli, 50% inhibition of Alamar Blue reduction. As to the method:
as §1

The subject of data set [3] is Staphylococcus epidermidis (ATCC 12,228). The description is as above. It is filed as cell-based. The following applies: for IC50: Staphylococcus epidermidis, ATCC12, 5 min, read-out: 50% Inhibitory Concentration (IC50), S. epidermidis, 50% inhibition of Alamar Blue reduction. As for the experimental part: as §1
For a further data set, the system named is Human stratum corneum. As to conditions: tape biopsies soaked 30 minutes at room temperature; against purified water controls; tested in triplicate; Sulfate.
Setting [4] is: 50% inhibition of Alamar Blue reduction, 5 minutes incubation at room temperature, listed as #4, sulfate.
[5] abbreviates: 5 minutes incubation at room temperature.

The values below come from patent US6610314B2, “Antimicrobial formulations” (Kimberly-Clark Worldwide, Inc., priority 2001, dated 2003).

Description for Human stratum corneum: Skin mildness was evaluated by measuring the damage caused by the biocide on the outer portion of the stratum corneum, and specifically the removal of the lipid component of the stratum corneum.
Human stratum corneum was harvested from adult legs using D-Squame tape biopsies (Cuderm Corporation, Dallas Tex.). Each biopsy harvested consisted of about 7 to 8 pulls from multiple sites on a subject's lower leg. After harvesting, the tapes containing the biopsies were soaked in the test biocide (2 mL) in covered six well tissue cultured dishes for 30 minutes at room temperature. Each biocide formulation was tested in triplicate in adjacent wells.
After soaking the tape strips in the biocide, the tape strips were removed and washed for 3 minutes with cold tap water, and dried at room temperature. After drying, the tape strips containing the biopsies were completely immersed in fushin-toluidine blue dye (Polychrome Multiple Stain, PMS: Delasco, Council Bluff, Iowa.) The immersion continued for 3 minutes after which the tape strips were removed and washed for 3 minutes in cold tap water. After washing, the tape strips were allowed to dry completely at room temperature.
The color of the dried samples was measured by color reflectance using a Minolta CR 5000 (Minolta, Osaka, Japan) spectrophotometer. The color measurements recorded the luminance (L*) and chromaticity through Chroma C* described by the equation (a^*2+b^*2)^½. The color differentials between test materials and controls were calculated according to: [(ΔL*)^2+(ΔC*)^2]^1/2=ΔE*ab. The measurements were taken against controls which were purified water.

With `CCCCCCCCCCCCOS(=O)(=O)[O-].[Na+]` [Biocide #4, sodium dodecyl sulfate], the “inhibition / biocidal activity in words, S. aureus” value in data set [1] is “exhibited inhibition”. Further, the “50% Inhibitory Concentration (IC50), S. aureus” value in data set [1] (listed as #4, sulfate) was 480 µg/mL; in data set [1] (listed as sodium dodecyl sulfate, sulfate), “less than 1 g/L”. The “inhibition in words, E. coli” value in data set [2] is recorded as “exhibited inhibition”. Further, in data set [2] (setting [4]), the “50% Inhibitory Concentration (IC50), E. coli” value was 79500 µg/mL. Also, the IC50 in data set [2] (setting [5]) was ~79000 µg/mL; in data set [3] (setting [5]), < 1000 µg/mL. Also, the “inhibition in words, S. epidermidis” value in data set [3] is “exhibited inhibition”. Moreover, the “50% Inhibitory Concentration (IC50), S. epidermidis” value in data set [3] (setting [4]) was 950 µg/mL.
Take `CCCCCCCCCCCCOS(=O)(=O)[O-].[Na+]` [Formulation 6, Sodium Dodecyl Sulfate]: the “ΔE*ab (color differential of dye-stained stratum corneum biopsies)” value with Human stratum corneum is 3.36.
For `O=C(O)CC(O)(CC(=O)O)C(=O)O` [Biocide #1, Citric Acid], the IC50 is 2200 µg/mL in data set [1], > 6300 µg/mL in data set [2] (setting [5]) and 710 µg/mL in data set [3] (setting [5]).
On to `O=C(O)CC(O)C(=O)O` (stereo not drawn) [Biocide #2, Malic Acid], for which the IC50 in data set [1] was 1300 µg/mL; in data set [2] (setting [5]), 6000 µg/mL; in data set [3] (setting [5]), 240 µg/mL.
Take `CCCCCCCCCCCCOS(=O)(=O)[O-].[Na+]` [Formulation 5, Sodium Dodecyl Sulfate]: the “ΔE*ab (color differential of dye-stained stratum corneum biopsies)” value in the data set with Human stratum corneum is 20.76.
Still for that read-out and setting: the value for `CCCCCCCCCCCCOS(=O)(=O)[O-].[Na+]` [Formulation 4, Sodium Dodecyl Sulfate] was 34.41.
